# Measured values as given in patent US9486422B2, “Small molecule inhibitors of Mcl-1 and the uses of thereof” (THE REGENTS OF THE UNIVERSITY OF MICHIGAN, priority 2011, dated 2016).
# What was measured:
# [1] = tested on: cytochrome c and Smac release in Panc-1 cells; assay: Release of cytochrome c and Smac from mitochondria (Western blot); type: cell-based, human; conditions: 24 h treatment
# Protocol: The cells were treated and harvested at the indicated time points after treatment. Total cell lysates were subjected to electrophoresis onto SDS-containing 4-20% polyacrylamide gels (Invitrogen), and transferred to polyvinylidene difluoride (PVDF) membranes (Thermo Scientific). Following blocking in 5% milk, membranes were incubated with a specific primary antibody, washed, and incubated with horseradish peroxidase linked secondary antibody (Santa Cruz). The signals were visualized with the chemiluminescent horseradish peroxidase antibody detection reagent (Roche Molecular Biochemicals). Primary antibodies included: caspase-3 (Enzo Life Sciences), Mcl-1 and actin (Santa Cruz), Bcl-xL (BD Transduction Laboratories); Bcl-2, Bax, pro-PARP and cytochrome-c (Cell Signaling), Bak (Calbiochem), and Smac (Abgent).
# [2] = tested on: AsPc1; assay: Cell growth inhibition (WST-8), AsPc1; type: cell-based; conditions: Homo sapiens, ASPC1, 96 h; 4 days treatment
# Protocol: (§1) Human PC cell lines AsPC-1, BxPC-3 and Capan-2 were cultured in RPMI 1640 medium, while Panc-1 and MiaPaCa were cultured in DMEM medium (Life Technologies), all supplemented with 10% fetal bovine serum (Thermo Scientific HyClone). The rate of cell growth inhibition after treatment with increasing concentrations of the tested compounds was determined by WST-8 assay as described in the manufacturers protocol (Dojindo Molecular Technologies Inc.).
# [3] = target: Mcl-1/Bax protein-protein interactions (Homo sapiens, UniProt Q07820); assay: SPR competitive solution binding assay, Mcl-1 to immobilized Bax; conditions: Mcl-1 300 nM pre-incubated with inhibitor; read-out: IC50, inhibition of binding of Mcl-1 to Bax
# Chain of Mcl-1/Bax protein-protein interactions (Q07820 171-327): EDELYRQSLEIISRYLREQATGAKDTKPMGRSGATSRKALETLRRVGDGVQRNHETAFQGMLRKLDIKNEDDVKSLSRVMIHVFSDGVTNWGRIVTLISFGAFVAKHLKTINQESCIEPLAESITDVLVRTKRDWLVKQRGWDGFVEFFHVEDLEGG
# Protocol: SPR experiments were performed using Biacore 2000 optical biosensors. Recombinant Bax, residues 1 to 100 (Novus Biologicals) and Mcl-1 proteins were used for competitive solution binding experiments. The details for immobilization of Bax protein, determination of the binding affinity of Mcl-1 to Bax, and conditions for testing Mcl-1 compounds are provided.
# Recombinant Bax protein (residues 1-100) purchased from Novus Biologicals, Inc., was immobilized on a CM-5 sensor chip at different densities using standard EDC/NHS coupling chemistry followed by ethanolamine deactivation of the surfaces. […] Determination of kon, koff and Kd were calculated by simultaneous non-linear regression using BIAEvaluation software.
# Using the same Bax immobilized CM5 chip, SPR competitive solution binding experiments were performed by pre-incubated Mcl-1 protein (300 nM) with tested small-molecule inhibitors for at least 30 minutes and then the reaction mixture was injected over the surfaces of the chip. Response units were measured at 60 seconds in the dissociation phase and the specific binding was calculated by subtracting the control surface (Fc1) signal from the surfaces with immobilized Bax. […] IC50 values were determined by non-linear least squares analysis using Graph Pad Prism 5.0 software.
# [4] = tested on: patient bone marrow derived plasma cells; assay: Apoptosis (Annexin V-FITC/PI), multiple myeloma patient cells; type: cell-based, human
# Protocol: Blood or bone marrow samples from multiple myeloma patients was obtained from treated or untreated patients after informed consent. Plasma cells were obtained after gradient density centrifugation using Ficoll Hypaque. Some samples were purified for […] population using flow cytometry. In all cases, purity of the plasma cells was higher than 90%, as assessed by morphology.
# MM cell lines were cultured in six-well plates and treated as described above. At the end of the treatment the cells were washed and resuspended in annexin binding buffer (10 mM 4-(2-hydroxyethyl)-1-piperazineethanesulfonic acid pH 7.4, 140 mM NaCl, 2.5 mM CaCl2) after which Annexin V-FITC and Propodium Iodide solution was added (5 micro L each) according to manufactures protocol (BD Bioscences). Flow cytometry was performed using a FACSCanto (BD Biosciences, San Jose, Calif., USA).
# [5] = tested on: MiaPaCa-2; assay: Cell growth inhibition (WST-8), MiaPaCa-2; type: cell-based; conditions: Homo sapiens, MIA PaCa-2, 96 h; 4 days treatment
# Protocol: as §1
# [6] = target: Bcl-xL (Homo sapiens, UniProt Q07817, DEL45-85); assay: FP-based binding assay, Bcl-xL
# Chain of Bcl-xL (Q07817 other isoform, or with tags, fused parts or gaps DEL45-85): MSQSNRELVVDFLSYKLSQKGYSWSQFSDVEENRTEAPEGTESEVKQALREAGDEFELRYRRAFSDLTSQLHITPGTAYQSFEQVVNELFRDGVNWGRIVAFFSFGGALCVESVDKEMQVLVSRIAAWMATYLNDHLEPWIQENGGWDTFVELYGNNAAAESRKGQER
# [7] = target: T1, Mcl-1/Bax and Mcl-1/Bak complexes in BxPC-3 cells (Homo sapiens, UniProt Q07820); assay: Immunoprecipitation with Mcl-1 antibody, BxPC-3; type: cell-based; conditions: 4 μM, 24 h
# T1 construct: endogenous in cells; host or cells: BxPC-3
# T1 sequence (Q07820 whole entry, one chain of several): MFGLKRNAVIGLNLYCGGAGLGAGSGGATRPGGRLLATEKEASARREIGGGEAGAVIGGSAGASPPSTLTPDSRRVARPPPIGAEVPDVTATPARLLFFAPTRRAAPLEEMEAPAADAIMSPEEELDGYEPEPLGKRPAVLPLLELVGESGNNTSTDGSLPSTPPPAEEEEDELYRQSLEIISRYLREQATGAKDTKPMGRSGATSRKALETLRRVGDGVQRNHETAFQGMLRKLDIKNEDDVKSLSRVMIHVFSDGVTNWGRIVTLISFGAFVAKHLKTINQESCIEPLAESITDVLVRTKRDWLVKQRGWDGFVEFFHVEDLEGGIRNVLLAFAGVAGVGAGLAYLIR
# Protocol: Cell lysate (500 μg) were subjected to immunoprecipitation by adding 2.5-5 μg of anti-Mcl-1 antibody and incubation overnight at 4° C. After adding 30 μl of Protein G-agarose (Immunoprecipitation Kit, Sigma) and incubation for 4 h, the samples were centrifuged. The agarose pellet was then washed 7 times, resuspended in Laemmli buffer (Santa Cruz), and boiled for 5 min. Boiled samples were centrifuged, and supernatant was used for Western blot analysis.
compound,measurement,setting,value
"O=C(O)CSc1cc(NS(=O)(=O)c2ccc(Br)cc2)c2ccccc2c1O [Compound 9, 2-((4-(4-Bromophenylsulfonamido)-1-hydroxynaphthalen-2-yl)thio)acetic acid]",concentration from which cytochrome c and Smac are released,[1],≥ 10 µM
same,IC50,[2],16.1 ± 4.2 µM
same,IC50,[3],1.43 ± 0.14 µM
same,"apoptotic cells, early event","[4]; Pt 90620372, treated",10.1%
same,"apoptotic cells, late event","[4]; Pt 90620372, treated",19.8%
same,"apoptotic cells, early events","[4]; Pt 957034714, treated",32.9%
same,"apoptotic cells, late events","[4]; Pt 957034714, treated",62.9%
same,"apoptotic cells, early events","[4]; Pt 957060476, treated",13.3%
same,"apoptotic cells, late events","[4]; Pt 957060476, treated",26.6%
same,IC50,[5],12.5 ± 1.01 µM
same,fold lower affinity to Bcl-xL than to Mcl-1 (selectivity),[6],more than 50 fold
same,Ki,[6]; read-out: Bcl-xL Ki ± SD,33 ± 4.33 µM
same,inhibition of endogenous interactions of Bax and Bak with Mcl-1,[7],complete inhibition
